Experimental data published in US6737383B1, “Herbicidal oxadiazolidines” (priority 1999, dated 2004).

Columns and labels:
blackgrass = assay: Test B pre/postemergence blackgrass; assay type: in vivo, Alopecurus myosuroides
How it was run: (§1)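 Test chemicals in a non-phytotoxic solvent mixture with surfactant were sprayed preemergence onto planted seeds and postemergence onto plants 2 to 18 cm tall (1- to 4-leaf stage). After twelve to sixteen days in a greenhouse, injury was visually rated against untreated controls from 0 (no effect) to 10 (complete control).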

crabgrass = assay: Test B pre/postemergence crabgrass; assay type: in vivo, Digitaria sanguinalis
How it was run: as §1

cocklebur = assay: Test B pre/postemergence cocklebur; assay type: in vivo, Xanthium strumarium; settings: for Cocklebur plant response rating: Postemergence; for Plant response rating, Cocklebur: Preemergence
How it was run: as §1

bamyardgrass = assay: Test B flood test barnyardgrass; assay type: in vivo, Echinochloa crus-galli
How it was run: (§2)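 Read-out is a visual response score from 0 (no effect) to 10 (complete control), assigned by comparison with untreated controls. Treatment was applied at the 2-leaf stage, and plants stayed in the greenhouse for twelve to sixteen days before scoring.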

wild oat = assay: Test B pre/postemergence wild oat; assay type: in vivo, Avena fatua
How it was run: as §1

velvetleaf = assay: Test B pre/postemergence velvetleaf; assay type: in vivo, Abutilon theophrasti
How it was run: as §1

giant foxtail = assay: Test B pre/postemergence giant foxtail; assay type: in vivo, Setaria faberii
How it was run: as §1

pigweed = assay: Test B pre/postemergence pigweed; assay type: in vivo, Amaranthus retroflexus
How it was run: as §1

bedstraw = assay: Test B pre/postemergence bedstraw; assay type: in vivo, Galium aparine
How it was run: as §1

smallflower flatsedge = assay: Test B flood test smallflower flatsedge; assay type: in vivo, Cyperus difformis
How it was run: as §2

morningglory = assay: Test B pre/postemergence morningglory; assay type: in vivo, Ipomoea hederacea
How it was run: as §1

surinam grass = assay: Test B pre/postemergence surinam grass; assay type: in vivo, Brachiaria decumbens
How it was run: as §1

wheat = assay: Test B pre/postemergence wheat; assay type: in vivo, Triticum aestivum
How it was run: as §1

soybean = assay: Test B pre/postemergence soybean; assay type: in vivo, Glycine max
How it was run: as §1

rice = assay: Test B flood test rice; assay type: in vivo, Oryza sativa
How it was run: as §2

purple nutsedge = assay: Test B pre/postemergence purple nutsedge; assay type: in vivo, Cyperus rotundus
How it was run: as §1

[1] = Postemergence, Rate 62 g/ha, scale 0 to 10, 0 is no effect, 10 is complete control
[2] = Postemergence, Rate 250 g/ha, scale 0 to 10, 0 no effect, 10 complete control
[3] = Preemergence, Rate 62 g/ha, scale 0 to 10, 0 is no effect, 10 is complete control
[4] = Preemergence, Rate 125 g/ha, scale 0 to 10 (0 no effect, 10 complete control)
[5] = Preemergence, Rate 250 g/ha, scale of 0 to 10 where 0 is no effect and 10 is complete control
[6] = Preemergence, Rate 500 g/ha, scale 0 (no effect) to 10 (complete control)
[7] = Rate 125 g/ha, Postemergence, scale 0 to 10, 0 no effect, 10 complete control
[8] = Rate 500 g/ha, Postemergence, 0 to 10 scale (0 no effect, 10 complete control)
[9] = Rate 62 g/ha, scale 0 to 10, 0 is no effect, 10 is complete control
[10] = Rate 125 g/ha, Postemergence section (flood test species), scale 0 to 10, 0 no effect, 10 complete control
[11] = Rate 250 g/ha, headed Pre-emergence (flood test species), scale 0 to 10 (0 no effect, 10 complete control)
[12] = Rate 500 g/ha, Postemergence section of Table B, 0 to 10 scale (0 no effect, 10 complete control)
[13] = Rate 500 g/ha, headed Pre-emergence (flood test species), scale 0 to 10 (0 no effect, 10 complete control)
[14] = Rate 1000 g/ha, Pre-emergence (as headed), scale 0 to 10
[15] = flood test, listed under Postemergence, Rate 250 g/ha, scale 0 to 10, 0 no effect, 10 complete control
[16] = Rate 2000 g/ha, Pre-emergence (as headed), scale 0 to 10

Cc1ccccc1-n1c(=O)on(C(=O)N(c2ccccc2)C(C)C)c1=O [Compound 36]
Blackgrass plant response rating (blackgrass; [1]): 0
Blackgrass plant response rating (blackgrass; [2]): 4
Plant response rating, Blackgrass (blackgrass; [3]): 4
Plant response rating, Blackgrass (blackgrass; [4]): 5
Plant response rating, Blackgrass (blackgrass; [5]): 6
Blackgrass plant response rating (blackgrass; [6]): 7
Blackgrass plant response rating (blackgrass; [7]): 3
Blackgrass plant response rating (blackgrass; [8]): 6
Crabgrass plant response rating (crabgrass; [1]): 3
Crabgrass plant response rating (crabgrass; [2]): 3
Plant response rating, Crabgrass (crabgrass; [3]): 8
Plant response rating, Crabgrass (crabgrass; [4]): 9
Plant response rating, Crabgrass (crabgrass; [5]): 9
Crabgrass plant response rating (crabgrass; [6]): 10
Crabgrass plant response rating (crabgrass; [7]): 3
Crabgrass plant response rating (crabgrass; [8]): 8
Cocklebur plant response rating (cocklebur; [9]): 0
Cocklebur plant response rating (cocklebur; Rate 250 g/ha, scale 0 to 10, 0 no effect, 10 complete control): 0
Plant response rating, Cocklebur (cocklebur; [9]): 0
Plant response rating, Cocklebur (cocklebur; Rate 125 g/ha, scale 0 to 10 (0 no effect, 10 complete control)): 0
Plant response rating, Cocklebur (cocklebur; Rate 250 g/ha, scale of 0 to 10 where 0 is no effect and 10 is complete control): 0
Cocklebur plant response rating (cocklebur; Rate 125 g/ha, scale 0 to 10, 0 no effect, 10 complete control): 0
Cocklebur plant response rating (cocklebur; Rate 500 g/ha, 0 to 10 scale (0 no effect, 10 complete control)): 4
Barnyardgrass plant response rating (bamyardgrass; [1]): 0
Barnyardgrass plant response rating (bamyardgrass; [10]): 0
Barnyardgrass plant response rating (bamyardgrass; [11]): 0
Barnyardgrass plant response rating (bamyardgrass; [12]): 5
Plant response rating, Barnyardgrass (bamyardgrass; [13]): 0
Barnyardgrass plant response rating (bamyardgrass; [14]): 0
Barnyardgrass plant response rating (bamyardgrass; Rate 2000 g/ha, Pre-emergence (as headed), scale 0 to 10, 0 no effect, 10 complete control): 0
Barnyardgrass plant response rating (bamyardgrass; [15]): 2
Wild oats plant response rating (wild oat; [1]): 0
Wild oats plant response rating (wild oat; [2]): 0
Plant response rating, Wild oats (wild oat; [4]): 2
Plant response rating, Wild oats (wild oat; [5]): 6
Wild oats plant response rating (wild oat; [6]): 7
Wild oats plant response rating (wild oat; [7]): 0
Velvetleaf plant response rating (velvetleaf; [1]): 0
Velvetleaf plant response rating (velvetleaf; [2]): 0
Plant response rating, Velvetleaf (velvetleaf; [3]): 0
Plant response rating, Velvetleaf (velvetleaf; [4]): 0
Plant response rating, Velvetleaf (velvetleaf; [5]): 0
Velvetleaf plant response rating (velvetleaf; [6]): 0
Velvetleaf plant response rating (velvetleaf; [7]): 0
Giant foxtail plant response rating (giant foxtail; [1]): 0
Giant foxtail plant response rating (giant foxtail; [2]): 3
Plant response rating, Giant foxtail (giant foxtail; [3]): 10
Plant response rating, Giant foxtail (giant foxtail; [4]): 10
Plant response rating, Giant foxtail (giant foxtail; [5]): 10
Giant foxtail plant response rating (giant foxtail; [6]): 10
Giant foxtail plant response rating (giant foxtail; [7]): 3
Giant foxtail plant response rating (giant foxtail; [8]): 3
Redroot pigweed plant response rating (pigweed; [1]): 2
Redroot pigweed plant response rating (pigweed; [2]): 7
Plant response rating, Redroot pigweed (pigweed; [3]): 0
Plant response rating, Redroot pigweed (pigweed; [4]): 0
Plant response rating, Redroot pigweed (pigweed; [5]): 6
Redroot pigweed plant response rating (pigweed; [6]): 7
Redroot pigweed plant response rating (pigweed; [7]): 5
Redroot pigweed plant response rating (pigweed; [8]): 7
Bedstraw plant response rating (bedstraw; [1]): 0
Plant response rating, Bedstraw (bedstraw; [3]): 0
Plant response rating, Bedstraw (bedstraw; [4]): 0
Bedstraw plant response rating (bedstraw; [6]): 0
S. Flatsedge plant response rating (smallflower flatsedge; [1]): 0
S. Flatsedge plant response rating (smallflower flatsedge; Pre-emergence, Rate 1000 g/ha, scale 0 to 10 (0 no effect, 10 complete control)): 0
S. Flatsedge plant response rating (smallflower flatsedge; [10]): 0
S. Flatsedge plant response rating (smallflower flatsedge; [11]): 0
Plant response rating, S. Flatsedge (smallflower flatsedge; [13]): 0
S. Flatsedge plant response rating (smallflower flatsedge; [16]): 0
S. Flatsedge plant response rating (smallflower flatsedge; [15]): 0
Morningglory plant response rating (morningglory; [1]): 4
Morningglory plant response rating (morningglory; [2]): 9
Plant response rating, Morningglory (morningglory; [3]): 0
Plant response rating, Morningglory (morningglory; [4]): 0
Plant response rating, Morningglory (morningglory; [5]): 0
Morningglory plant response rating (morningglory; [6]): 0
Morningglory plant response rating (morningglory; [7]): 9
Morningglory plant response rating (morningglory; [8]): 9
B. signalgrass plant response rating (surinam grass; [1]): 0
B. signalgrass plant response rating (surinam grass; [2]): 0
Plant response rating, B. signalgrass (surinam grass; [3]): 5
Plant response rating, B. signalgrass (surinam grass; [4]): 8
Plant response rating, B. signalgrass (surinam grass; [5]): 8
B. signalgrass plant response rating (surinam grass; [6]): 8
B. signalgrass plant response rating (surinam grass; [7]): 0
B. signalgrass plant response rating (surinam grass; [8]): 4
Wheat plant response rating (wheat; [1]): 0
Wheat plant response rating (wheat; [2]): 0
Plant response rating, Wheat (wheat; [3]): 0
Plant response rating, Wheat (wheat; [4]): 0
Plant response rating, Wheat (wheat; [5]): 0
Wheat plant response rating (wheat; [6]): 0
Wheat plant response rating (wheat; [7]): 0
Soybean plant response rating (soybean; [1]): 5
Soybean plant response rating (soybean; [2]): 5
Plant response rating, Soybean (soybean; [3]): 0
Plant response rating, Soybean (soybean; [4]): 0
Plant response rating, Soybean (soybean; [5]): 0
Soybean plant response rating (soybean; [6]): 0
Soybean plant response rating (soybean; [7]): 5
Rice plant response rating (rice; [1]): 0
Rice plant response rating (rice; [10]): 0
Rice plant response rating (rice; [11]): 0
Rice plant response rating (rice; [12]): 2
Plant response rating, Rice (rice; [13]): 0
Rice plant response rating (rice; [14]): 0
Rice plant response rating (rice; [16]): 0
Rice plant response rating (rice; [15]): 0
Nutsedge plant response rating (purple nutsedge; [1]): 0
Nutsedge plant response rating (purple nutsedge; [2]): 0
Plant response rating, Nutsedge (purple nutsedge; [3]): 0
Plant response rating, Nutsedge (purple nutsedge; [4]): 0
Plant response rating, Nutsedge (purple nutsedge; [5]): 0
Nutsedge plant response rating (purple nutsedge; [6]): 0
Nutsedge plant response rating (purple nutsedge; [7]): 0
Nutsedge plant response rating (purple nutsedge; [8]): 0
